According to PMC8625360 (Cells, 2021):
One block for each molecule: values may come before it.

Key:
HepG2 WT cells [1] = test: Colocalization of EGFP-ATP7B-WT with TGN, lysosome (LAMP1) and LC3B markers; assay type: cell-based, human
Protocol: (§1) For the detection of the effect of copper on autophagosome-lysosome fusion, 50,000 cells of each HepG2 WT and HepG2 ATP7B^−/− were grown on laminin-coated coverslips for 24 h, transduced with BacMam-GFP-RFP-LC3B overnight according to the manufacturer’s recommendations. The cells were then treated with CuSO4 at a concentration range from 100 µM to 800 µM for 24 h, fixed with 4% paraformaldehyde for 15 min and finally stained with 250 ng/mL DAPI (Thermo Fisher scientific, Molecular Probes, D1306) for 5 min. The coverslips were fixed on a glass slide using Mowiol 4–88 (Sigma Aldrich, 81381). The fluorescence cell imaging was acquired using a confocal Zeiss LSM 780 microscope with a 63 × 1.40 Oil DIC M27. […] Red and yellow puncta count per cell was done using the particle analysis in image J. For protein ATP7B trafficking analysis, 50,000 cells of HepG2 WT and HepG2 ATP7B^−/− were cultured in a 500 µL cell culture medium on a laminin-coated coverslip for 24 h, then transfected with EGFP-ATP7B. After 6 h post transfection, cells were transduced with BacMam-RFP-Golgi or the BacMam-RFP-Lysosome overnight, then treated with various concentrations of CuSO4 or 200 µM of bathocuproine disulfonate (BCS) for 24 h or EBSS for 2 h, respectively. To detect LC3B or endogenous ATP7B, the fixed cells were incubated with anti-LC3B or anti-ATP7B antibodies at 4 °C overnight followed by secondary antibody incubation, Alexa Fluor 568 goat anti-rabbit, at temperature for 1 h in the dark. Pearson’s correlation coefficient was analyzed per cell using the colocalization threshold of ImageJ Fiji.

HepG2 WT cells [2] = test: Autophagosome-lysosome fusion, tandem sensor RFP-GFP-LC3B, HepG2 WT; assay type: cell-based, human; details: 24 h, high CuSO4 concentration, significance reached at 800 µM, 30–50 cells per condition
Protocol: as §1, with “To detect LC3B or endogenous ATP7B, the fixed cells were incubated with anti-LC3B or anti-ATP7B antibodies at 4 °C overnight followed by secondary antibody incubation, Alexa Fluor 568 goat anti-rabbit, at temperature for 1 h in the dark.” left out

HepG2 WT cells [3] = test: Autophagy detection by western blot (LC3B-II/LC3B-I), HepG2 WT; assay type: cell-based, human; details: 24 h treatment, 100–800 µM, effect at 600 µM and 800 µM
Protocol: (§2) 5 × 10^5 HepG2 cells were cultured in 2 mL of DMEM medium supplemented with 10% FBS and 1% P/S. Once the cell reached 80% confluence, they were treated with varied concentration of CuSO4 (Sigma Aldrich, 209198) from 200 µM to 800 µM for 24 h. For the starvation induction, cells were additionally treated with Earle’s Balanced Salt Solution (EBSS) media (Sigma Aldrich, E3024) for 2 h with or without 50 µM chloroquine (CLQ) prior to lysis with RIPA buffer containing inhibitor cocktails (Roche Life Science, 11697498001). Protein concentration was determined to be sure that the protein of each sample was equally loaded on the Criterion TGX precast gel for western blot detection. ATP7B, GAPDH and LC3B-II/LC3B-I was determined using the above-mentioned antibodies. Western Blot analysis was carried out as described above.

HepG2 ATP7B^−/− cells [4] = test: Autophagy detection by western blot (LC3B-II/LC3B-I), HepG2 ATP7B-/-; assay type: cell-based, human; details: 24 h, even at 600 µM and 800 µM
Protocol: as §2

HepG2 ATP7B^−/− cells [5] = test: Autophagosome-lysosome fusion, tandem sensor RFP-GFP-LC3B, HepG2 ATP7B-/-; assay type: cell-based, human; details: 24 h, 800 µM, 30–50 cells per condition
Protocol: as §1, with “To detect LC3B or endogenous ATP7B, the fixed cells were incubated with anti-LC3B or anti-ATP7B antibodies at 4 °C overnight followed by secondary antibody incubation, Alexa Fluor 568 goat anti-rabbit, at temperature for 1 h in the dark.” left out

LC3B = biological target: T1, LC3B (Homo sapiens, UniProt Q9GZQ8); test: Pull-down with resin-bound GST-LC3B as bait from transfected HEK293H cell lysate; assay type: binding; details: 500 µg HEK293H lysate, western blot, repeated two times
T1 construct: His6 (N, cleaved yes); MBP (N, cleaved yes); made in house; host or cells: E. coli BL21-codonplus (DE3)-RIL
Protocol: GST tagged LC3B was used as a bait to trap the full-length ATP7B from a lysate obtained from ATP7B transfected human embryonic kidney 293 H cell line (HEK293H) cells. To this end, 100,000 cells of HEK293H were cultured in 1 mL of DMEM media (Thermo Fisher Scientific, 31966-047) plus 10% fetal bovine serum (FBS) (Fisher Scientific, 10309433) and 1% Penicillin-Streptomycin (P/S) (Thermo Fisher Scientific, 15140122). Once the cells reached 80% confluence, cells were transfected with pIRES-GFP carrying full-length ATP7B (NM_000053.4) or its W1452A/L1455A mutant using Lipofectamine LTX and plus reagent (Invitrogen, 15338100). […] Blots were imaged on an Infrared fluorescence imaging system using Li-Cor 9120 Odyssey (LI-COR Biosciences, Bad Homburg, Germany). Protein band intensity quantification was done using ImageJ (National Institutes of Health, Bethesda, MD, USA).

Molecule: O=S(=O)([O-])[O-].[Cu+2] [CuSO4]
TGN fraction of EGFP-ATP7B (HepG2 WT cells [1]; 400 µM CuSO4, 24 h): no TGN fraction was detectable
fold increase of EGFP-ATP7B colocalization with lysosomal structures vs basal medium condition (HepG2 WT cells [1]; 400 µM CuSO4, 24 h): about 1.2 fold
colocalization of EGFP-ATP7B with lysosomal structures (LAMP1) (HepG2 WT cells [1]; 400 µM CuSO4, 24 h, percentage from mean Pearson's correlation coefficient, 30 cells): 83.6%
fold elevation of EGFP-ATP7B colocalization with LC3B vs basal copper concentration (HepG2 WT cells [1]; high CuSO4 concentration (400 µM), 24 h): 4.8 fold
colocalization of EGFP-ATP7B with LC3B (HepG2 WT cells [1]; high CuSO4 concentration (400 µM), 24 h, from mean Pearson's correlation coefficient, 30 cells): 11.6%
red/yellow puncta ratio (autophagosome-lysosome fusion) (HepG2 WT cells [2]): increased red/yellow puncta ratio
LC3B-II level (western blot) (HepG2 WT cells [3]): significant increase of LC3B-II
LC3B-II/LC3B-I ratio (western blot) (HepG2 ATP7B^−/− cells [4]): did not significantly alter
red/yellow puncta ratio (autophagosome-lysosome fusion) (HepG2 ATP7B^−/− cells [5]): significantly decreased

ATP7B in elution fraction of GST-LC3B pull-down (LC3B): largely reduced
B1: ATP7B^W1452A/L1455A: full-length ATP7B variant W1452A/L1455A with mutated LIR3 motif (protein)
chain: MPEQERQITAREGASRKILSKLSLPTRAWEPAMKKSFAFDNVGYEGGLDGLGPSSQVATSTVRILGMTCQSCVKSIEDRISNLKGIISMKVSLEQGSATVKYVPSVVCLQQVCHQIGDMGFEASIAEGKAASWPSRSLPAQEAVVKLRVEGMTCQSCVSSIEGKVRKLQGVVRVKVSLSNQEAVITYQPYLIQPEDLRDHVNDMGFEAAIKSKVAPLSLGPIDIERLQSTNPKRPLSSANQNFNNSETLGHQGSHVVTLQLRIDGMHCKSCVLNIEENIGQLLGVQSIQVSLENKTAQVKYDPSCTSPVALQRAIEALPPGNFKVSLPDGAEGSGTDHRSSSSHSPGSPPRNQVQGTCSTTLIAIAGMTCASCVHSIEGMISQLEGVQQISVSLAEGTATVLYNPSVISPEELRAAIEDMGFEASVVSESCSTNPLGNHSAGNSMVQTTDGTPTSVQEVAPHTGRLPANHAPDILAKSPQSTRAVAPQKCFLQIKGMTCASCVSNIERNLQKEAGVLSVLVALMAGKAEIKYDPEVIQPLEIAQFIQDLGFEAAVMEDYAGSDGNIELTITGMTCASCVHNIESKLTRTNGITYASVALATSKALVKFDPEIIGPRDIIKIIEEIGFHASLAQRNPNAHHLDHKMEIKQWKKSFLCSLVFGIPVMALMIYMLIPSNEPHQSMVLDHNIIPGLSILNLIFFILCTFVQLLGGWYFYVQAYKSLRHRSANMDVLIVLATSIAYVYSLVILVVAVAEKAERSPVTFFDTPPMLFVFIALGRWLEHLAKSKTSEALAKLMSLQATEATVVTLGEDNLIIREEQVPMELVQRGDIVKVVPGGKFPVDGKVLEGNTMADESLITGEAMPVTKKPGSTVIAGSINAHGSVLIKATHVGNDTTLAQIVKLVEEAQMSKAPIQQLADRFSGYFVPFIIIMSTLTLVVWIVIGFIDFGVVQRYFPNPNKHISQTEVIIRFAFQTSITVLCIACPCSLGLATPTAVMVGTGVAAQNGILIKGGKPLEMAHKIKTVMFDKTGTITHGVPRVMRVLLLGDVATLPLRKVLAVVGTAEASSEHPLGVAVTKYCKEELGTETLGYCTDFQAVPGCGIGCKVSNVEGILAHSERPLSAPASHLNEAGSLPAEKDAVPQTFSVLIGNREWLRRNGLTISSDVSDAMTDHEMKGQTAILVAIDGVLCGMIAIADAVKQEAALAVHTLQSMGVDVVLITGDNRKTARAIATQVGINKVFAEVLPSHKVAKVQELQNKGKKVAMVGDGVNDSPALAQADMGVAIGTGTDVAIEAADVVLIRNDLLDVVASIHLSKRTVRRIRINLVLALIYNLVGIPIAAGVFMPIGIVLQPWMGSAAMAASSVSVVLSSLQLKCYKKPDLERYEAQAHGHMKPLTASQVSVHIGMDDRWRDSPRATPWDQVSYVSQVSLSSLTSDKPSRHSAAADDDGDKASLALNGRDEEQYI
